Measurements published in publication PMC11327196, “A phase 1 study to assess the absolute bioavailability, mass balance, pharmacokinetics, metabolism, and excretion of [^14C]-mobocertinib, an oral inhibitor of EGFR exon 20 insertion mutations, in healthy participants” (Investigational New Drugs, 2024).

Assay: Period 2 human ADME study: whole blood PK after oral solution [14C]-mobocertinib
Format: in vivo
Protocol: This was a two-period, open-label, single-dose phase 1 study (NCT03811834) conducted at one clinical site (Celerion, Lincoln, Nebraska, USA) in healthy male participants. The primary objective of Period 1 was to determine the absolute bioavailability of mobocertinib following a single oral dose of 160 mg mobocertinib as capsules and a single intravenous (IV) microdose of 50 µg (~ 2 µCi) [^14C]-mobocertinib. The primary objectives of Period 2 were to (1) assess the cumulative excretion of total radioactivity in urine and feces (mass balance); (2) assess the metabolite profile of mobocertinib in plasma, urine, and feces; and (3) characterize the PK of mobocertinib, AP32960, and AP32914 in plasma, whole blood, and urine, and total radioactivity concentration equivalents in plasma and whole blood following a single oral dose of 160 mg (~ 100 µCi) [^14C]-mobocertinib as an oral solution. A sample size of 6 healthy males was selected without statistical considerations and deemed adequate to meet the study objectives. Furthermore, the sample size was limited based on clinical considerations for human ADME studies and to limit exposure to radioactivity.
After a washout of 8–9 days, participants returned to the clinic for Day − 1 of Period 2. On Day 1 of Period 2, after a fast of ≥ 10 h, participants received a single nominal dose of 160 mg (~ 100 µCi; whole body effective dose of 5.3 mrem for a 70-kg human) [^14C]-mobocertinib as a 70 mL oral solution. The actual doses administered ranged from 161 to 163 mg (92.4 to 93.9 µCi). Participants stayed in the clinic from Day − 1 until a discharge criterion (≥ 80% of the total administered radioactive dose was recovered in urine and feces or excretion of radioactivity in urine and feces combined had declined to ≤ 1% of the total administered dose per day for ≥ 2 consecutive intervals) was met, or up to 10 days postdose. To measure the total radioactivity and concentrations of mobocertinib, AP32960, and AP32914 in whole blood and plasma, 4 blood samples were collected predose, and at 0.5, 1, 2, 3, 4, 5, 6, 8, 12, 24, 36, 48, 72, 96, 120, 144, 168, 192, 216, and 240 h postdose; a fifth blood sample was collected for plasma metabolite profiling at predose and 1, 2, 4, 6, 12, 24, 48, 72, 96, 120, and 168 h postdose. Feces and urine were collected predose (feces within 48 h and urine within 24 h prior to dosing), 0–24 h (urine from 0–12 and 12–24 h), and then at 24-hour intervals up to 240 h postdose or until a discharge criterion was met. […] These 2 participants continued with at-home fecal sample collections. One participant provided fecal samples until Day 13 (264–288 h interval) and one participant provided fecal samples until Day 19 (408–432 h interval), after which they met a discharge criterion.
Plasma, whole blood, and urine samples were assayed for mobocertinib, AP32960, and AP32914 concentrations using liquid chromatography-tandem mass spectrometry (Q2 Solutions, Ithaca, New York, USA). The analytical range for each analyte was 0.250 to 500 ng/mL in whole blood and plasma, and 1.00 to 1000 ng/mL in urine. […] Urine and fecal samples were assayed for total radioactivity following the IV dose of [^14C]-mobocertinib in Period 1, and whole blood, plasma, urine, and fecal samples were assayed for total radioactivity following the oral dose of [^14C]-mobocertinib in Period 2 using liquid scintillation counting (LSC; Celerion, Lincoln, Nebraska, USA; LLOQs: Period 1 urine: 0.115–0.118 ng eq/g, feces: 0.720–0.759 ng eq/g; Period 2 whole blood: 87.3–112 ng eq/g, plasma: 116–132 ng eq/mL, urine: 37.8–46.8 ng eq/g, feces: 110–336 ng eq/g across participants). Urine and fecal samples collected in Period 1 that had total radioactivity concentration equivalents below the LLOQ of the Celerion LSC assay were sent to Pharmaron for measurement by AMS (LLOQ: urine: 0.0000253–0.00111 ng eq/g; feces: 0.000404–0.0278 ng eq/g across participants). The LSC and AMS assays were not cross-validated. […]

[1] = Period 2, oral solution 160 mg [14C]-mobocertinib, whole blood, geometric mean (geometric CV%)
[2] = Period 2, oral solution 160 mg [14C]-mobocertinib, blood-to-plasma, geometric mean (geometric CV%)
[3] = male, human, Period 2, oral solution 160 mg [14C]-mobocertinib, whole blood, geometric mean (geometric CV%)

## C=CC(=O)Nc1cc(Nc2ncc(C(=O)OC(C)C)c(-c3cn(C)c4ccccc34)n2)c(OC)cc1N(C)CCN(C)C [Mobocertinib]
Period 2, oral solution 160 mg [14C]-mobocertinib
  geometric mean AUC∞ lower in whole blood compared to plasma: 24%
[1]
  CL/F: 222 (32.6) L/h
  Molar AUC∞ ratio (analyte vs. total radioactivity): 0.00224 (28.3)
  t1/2z: 20.5 (25.4) h
[2]
  B:P Ratio AUC∞: 0.763 (17.7)
  B:P Ratio Cmax: 0.794 (17.1)
Period 2, single oral solution 160 mg (~100 µCi) [14C]-mobocertinib, whole blood, median (range)
  tmax: 5.0 (2.0–6.0) h
male, human, whole blood and plasma, Period 2, oral solution 160 mg [14C]-mobocertinib, range over time, read-out: arithmetic mean blood-to-plasma (B:P) concentration ratios
  blood plasma ratio: 0.6 to 1.04
[3]
  AUC(0-inf): 729 ng·h/mL
  AUC(0-t): 718 ng·h/mL
  Cmax: 40.5 ng/mL
male, human, Period 2, oral solution 160 mg [14C]-mobocertinib, whole blood, geometric mean (geometric CV%), read-out: Vz/F
  Vd/F: 6550 L
